Test results published in PubChem BioAssay AID1195 (EPA DSSTox, 2008).

System: human maximum recommended daily dose, FDA database
Experiment: DSSTox (FDAMDD) FDA Maximum (Recommended) Daily Dose Database
Settings: stronger effect = lower value
Method in brief: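 MRDD values come from clinical trials with daily oral dosing, usually for 3–12 months, for the average adult, in mg/day converted to mg/kg-bw/day assuming 60 kg. Antineoplastic mg/m2 doses are divided by 37. Activity score maps log10(1/MRDD mmol) onto 1–100.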

[1] = TherapeuticCategory: antibacterial
[2] = TherapeuticCategory: antiarrhythmic
[3] = TherapeuticCategory: antineoplastic
[4] = TherapeuticCategory: antitussive
[5] = TherapeuticCategory: sedative, hypnotic
[6] = TherapeuticCategory: narcotic antagonist
[7] = TherapeuticCategory: anxiolytic
[8] = TherapeuticCategory: bronchodilator
[9] = TherapeuticCategory: diagnostic aid
[10] = TherapeuticCategory: antihypertensive
[11] = TherapeuticCategory: anthelmintic
[12] = TherapeuticCategory: anti inflammatory
[13] = TherapeuticCategory: cholinergic
[14] = TherapeuticCategory: vasodilator
[15] = TherapeuticCategory: antihyperlipoproteinemic

COCC1=C(C(=O)OC(C)OC(=O)OC(C)C)N2C(=O)[C@@H](NC(=O)/C(=N\OC)c3csc(N)n3)[C@H]2SC1 (stereo not given in full)
maximum recommended daily dose (mmol/kg-bw/day) [1]: 0.0179

Cc1nccn1CC1CCc2c(c3ccccc3n2C)C1=O (stereo not given)
maximum recommended daily dose (mmol/kg-bw/day) (TherapeuticCategory: antiemetic): 0.00136

NCC(CC(=O)O)c1ccc(Cl)cc1 (stereo not given)
maximum recommended daily dose (mmol/kg-bw/day) (TherapeuticCategory: skeletal muscle relaxant): 0.00622

C=CCN(C1=NCCN1)c1c(Cl)cccc1Cl
maximum recommended daily dose (mmol/kg-bw/day) [2]: 0.00492

N#Cc1ccc(C(c2ccc(C#N)cc2)n2cncn2)cc1
maximum recommended daily dose (mmol/kg-bw/day) [3]: 0.000146

CN[C@@H]1[C@H](O[C@H]2[C@H](O[C@H]3[C@H](O)[C@@H](O)[C@H](N=C(N)N)[C@@H](O)[C@@H]3N=C(N)N)O[C@@H](C)[C@]2(O)C=O)O[C@@H](CO)[C@H](O)[C@H]1O
maximum recommended daily dose (mmol/kg-bw/day) [1]: 0.0344

C#CC(C)(O)CC (stereo not given)
maximum recommended daily dose (mmol/kg-bw/day) (TherapeuticCategory: hypnotic, sedative): 0.17

CN1CCN2c3ncccc3Cc3ccccc3C2C1 (stereo not given)
maximum recommended daily dose (mmol/kg-bw/day) (TherapeuticCategory: antidepressant): 0.00283

CN1CCCC(=C(c2cccs2)c2cccs2)C1
maximum recommended daily dose (mmol/kg-bw/day) [4]: 0.0182

CC(=O)[C@@]1(O)CC[C@H]2[C@@H]3C=C(Cl)C4=CC(=O)CC[C@]4(C)[C@H]3CC[C@@]21C
maximum recommended daily dose (mmol/kg-bw/day) (TherapeuticCategory: progestogen, antineoplastic): 9.18e-05

C=CCC1(CC=C)C(=O)NC(=O)NC1=O
maximum recommended daily dose (mmol/kg-bw/day) [5]: 0.016

NS(=O)(=O)c1cc2c(cc1Cl)NCNS2(=O)=O
maximum recommended daily dose (mmol/kg-bw/day) (TherapeuticCategory: diuretic): 0.0112

CC1C2Cc3ccc(O)cc3C1(C)CCN2CC1CC1 (stereo not given)
maximum recommended daily dose (mmol/kg-bw/day) [6]: 0.000246

CCCCCCCCCC(=O)OCCN1CCN(CCCN2c3ccccc3Sc3ccc(C(F)(F)F)cc32)CC1
maximum recommended daily dose (mmol/kg-bw/day) (TherapeuticCategory: antispsychotic): 0.000563

O=C1C(=O)c2ccccc2C(O)=C1C1CCC(c2ccc(Cl)cc2)CC1 (stereo not given)
maximum recommended daily dose (mmol/kg-bw/day) (TherapeuticCategory: antiprotozoal, antimalarial, antifungal): 0.102

CC1(C)S[C@@H]2[C@H](NC(=O)[C@H](NC(=O)N3CCN(S(C)(=O)=O)C3=O)c3ccccc3)C(=O)N2[C@H]1C(=O)O
maximum recommended daily dose (mmol/kg-bw/day) [1]: 0.495

O=C1c2ccccc2C(=O)C1c1ccccc1
maximum recommended daily dose (mmol/kg-bw/day) (TherapeuticCategory: anticoagulant): 0.015

Oc1c(I)cc(I)c2cccnc12
maximum recommended daily dose (mmol/kg-bw/day) (TherapeuticCategory: antiamebic): 0.0756

O=C1CN=C(c2ccccc2)c2cc(Cl)ccc2N1CC(F)(F)F
maximum recommended daily dose (mmol/kg-bw/day) [7]: 0.00757

CCCCCCCCCCCCCCCC(=O)OCC(=O)[C@@]1(O)[C@H](C)C[C@H]2[C@@H]3CCC4=CC(=O)C=C[C@]4(C)[C@@]3(F)[C@@H](O)C[C@@]21C
maximum recommended daily dose (mmol/kg-bw/day) (TherapeuticCategory: glucocorticoid, anti inflammatory): 0.000238

CCCCNc1ccc(C(=O)OCCOCCOCCOCCOCCOCCOCCOCCOCCOC)cc1
maximum recommended daily dose (mmol/kg-bw/day) [4]: 0.0166

Nc1nc2c(ncn2COCCO)c(=O)[nH]1
maximum recommended daily dose (mmol/kg-bw/day) (TherapeuticCategory: antiviral): 0.0591

CC(=O)N[C@@H](CS)C(=O)O
maximum recommended daily dose (mmol/kg-bw/day) (TherapeuticCategory: mucolytic, corneal vulnerary): 0.0613

CN[C@@H](C)[C@H](O)c1ccccc1
maximum recommended daily dose (mmol/kg-bw/day) [8]: 0.0101

Nc1ncnc2c1ncn2[C@@H]1O[C@H](CO)[C@@H](O)[C@H]1O
maximum recommended daily dose (mmol/kg-bw/day) [2]: 0.00748

C=CCN1CC[C@]23c4c5ccc(O)c4O[C@H]2C(=O)CC[C@@]3(O)[C@H]1C5
maximum recommended daily dose (mmol/kg-bw/day) [6]: 0.000305

O=C(CCCCC(=O)Nc1c(I)cc(I)c(C(=O)O)c1I)Nc1c(I)cc(I)c(C(=O)O)c1I
maximum recommended daily dose (mmol/kg-bw/day) [9]: 0.147

NNc1nnc(NN)c2ccccc12
maximum recommended daily dose (mmol/kg-bw/day) [10]: 0.0175

Cc1cc(/C=C/c2ccc3cc(N(C)C)ccc3[n+]2C)c(C)n1-c1ccccc1
maximum recommended daily dose (mmol/kg-bw/day) [11]: 0.00434

CC(CN(C)C)C(C)(O)Cc1ccc(Cl)cc1 (stereo not given)
maximum recommended daily dose (mmol/kg-bw/day) [4]: 0.0156

N=c1ccn2c(n1)O[C@H]1[C@H](O)[C@@H](CO)O[C@H]12
maximum recommended daily dose (mmol/kg-bw/day) [3]: 0.0888

CCN(CC)CCCN(c1ccccc1)C1Cc2ccccc2C1
maximum recommended daily dose (mmol/kg-bw/day) [2]: 0.0155

CCCC(C)C1(CC)C(=O)NC(=S)NC1=O (stereo not given)
maximum recommended daily dose (mmol/kg-bw/day) (TherapeuticCategory: short acting anesthetic): 0.0172

CN/C(=C\[N+](=O)[O-])NCCSCc1csc(CN(C)C)n1
maximum recommended daily dose (mmol/kg-bw/day) (TherapeuticCategory: antiulcerative): 0.0151

Oc1ccc(Cl)cc1Cc1cc(Cl)ccc1O
maximum recommended daily dose (mmol/kg-bw/day) [11]: 0.372

OC1(c2ccc(Cl)cc2)c2ccccc2C2=NCCN21 (stereo not given)
maximum recommended daily dose (mmol/kg-bw/day) (TherapeuticCategory: anorexic): 0.000117

CCN(CC)C(=S)SSC(=S)N(CC)CC
maximum recommended daily dose (mmol/kg-bw/day) (TherapeuticCategory: alcohol deterrent): 0.0281

CCC(=O)Oc1ccc2c(c1)CC[C@@H]1[C@@H]2CC[C@]2(C)[C@@H](OC(=O)CC)CC[C@@H]12
maximum recommended daily dose (mmol/kg-bw/day) (TherapeuticCategory: estrogen): 0.0013

C#C[C@]1(O)CC[C@H]2[C@@H]3CCC4=CC(=O)CC[C@]4(C)[C@H]3CC[C@@]21C
maximum recommended daily dose (mmol/kg-bw/day) (TherapeuticCategory: progestogen): 0.00534

CCOC(=O)C1=C[C@]2(CC)CCCN3CCc4c(n1c1ccccc41)[C@@H]32
maximum recommended daily dose (mmol/kg-bw/day) (TherapeuticCategory: cerebral vasodilator): 0.00143

CCN(CC)C(=S)S
maximum recommended daily dose (mmol/kg-bw/day) (TherapeuticCategory: immunomodulator, chelating agent): 0.0584

CC(C)(O/N=C(\C(=O)N[C@@H]1C(=O)N2C(C(=O)[O-])=C(C[n+]3ccccc3)CS[C@H]12)c1csc(N)n1)C(=O)O
maximum recommended daily dose (mmol/kg-bw/day) [1]: 0.243

CC(=O)Nc1ccccc1
maximum recommended daily dose (mmol/kg-bw/day) (TherapeuticCategory: antipyretic, analgesic): 0.037

CC(C)Cc1ccc(C(C)C(=O)O)cc1 (stereo not given)
maximum recommended daily dose (mmol/kg-bw/day) [12]: 0.194

CC[N+](C)(C)c1cccc(O)c1
maximum recommended daily dose (mmol/kg-bw/day) [13]: 0.00347

CN1CCN(C2=Nc3cc(Cl)ccc3Nc3ccccc32)CC1
maximum recommended daily dose (mmol/kg-bw/day) (TherapeuticCategory: antipsychotic): 0.0459

CN1CCN(C2=Nc3ccccc3Oc3ccc(Cl)cc32)CC1
maximum recommended daily dose (mmol/kg-bw/day) [7]: 0.0127

CC(=O)CCCCn1c(=O)c2c(ncn2C)n(C)c1=O
maximum recommended daily dose (mmol/kg-bw/day) [14]: 0.0719

CCCCNC(=O)OCC(C)(CCC)COC(N)=O (stereo not given)
maximum recommended daily dose (mmol/kg-bw/day) [7]: 0.182

CC(C[N+](C)(C)C)OC(N)=O (stereo not given)
maximum recommended daily dose (mmol/kg-bw/day) [13]: 0.0169

C[C@](N)(Cc1ccc(O)cc1)C(=O)O
maximum recommended daily dose (mmol/kg-bw/day) (TherapeuticCategory: tyrosine hydroxylase inhibitor): 0.342

CC(Oc1c(Cl)cccc1Cl)C1=NCCN1 (stereo not given)
maximum recommended daily dose (mmol/kg-bw/day) [10]: 0.000154

CCC[C@@H]1O[C@@H]2C[C@H]3[C@@H]4CCC5=CC(=O)C=C[C@]5(C)[C@H]4[C@@H](O)C[C@]3(C)[C@]2(C(=O)CO)O1
maximum recommended daily dose (mmol/kg-bw/day) [12]: 1.01e-05

Cc1[nH]c(=O)c(C#N)cc1-c1ccncc1
maximum recommended daily dose (mmol/kg-bw/day) (TherapeuticCategory: cardiotonic): 0.000237

CN1c2cc(O)c(N=NC(N)=O)cc2CC1S(=O)(=O)O (stereo not given)
maximum recommended daily dose (mmol/kg-bw/day) (TherapeuticCategory: hemostatic): 0.00931

O=C(O)C1CCc2cc(C3CCCCC3)c(Cl)cc21 (stereo not given)
maximum recommended daily dose (mmol/kg-bw/day) (TherapeuticCategory: anti inflammatory, antipyretic): 0.00269

C=CCN1C(=O)C(CC(C)C)NC1=S (stereo not given)
maximum recommended daily dose (mmol/kg-bw/day) (TherapeuticCategory: anticonvulsant): 0.188

CN1C(=O)NC(=O)C(C)(C2=CCCCC2)C1=O (stereo not given)
maximum recommended daily dose (mmol/kg-bw/day) (TherapeuticCategory: sedative, hypnotic, anesthetic): 0.0353

CN(Cc1cc(Br)cc(Br)c1N)C1CCCCC1
maximum recommended daily dose (mmol/kg-bw/day) (TherapeuticCategory: expectorant, mucolytic): 0.00213

CC(C)NCC(O)COc1cccc2[nH]ccc12 (stereo not given)
maximum recommended daily dose (mmol/kg-bw/day) (TherapeuticCategory: antihypertensive, antianginal, antiarrhythmic, antiglaucomic): 0.00403

CC[C@H](CC[C@@H](C)[C@H]1CC[C@H]2[C@@H]3CC=C4C[C@@H](O)CC[C@]4(C)[C@H]3CC[C@]12C)C(C)C
maximum recommended daily dose (mmol/kg-bw/day) (TherapeuticCategory: anticholinesteremic): 0.241

CC(=O)NCCOC(=O)C(Oc1cccc(C(F)(F)F)c1)c1ccc(Cl)cc1 (stereo not given)
maximum recommended daily dose (mmol/kg-bw/day) (TherapeuticCategory: antihyperlipoproteinemic, uricosuric): 0.0402

CNC1(c2ccccc2Cl)CCCCC1=O (stereo not given)
maximum recommended daily dose (mmol/kg-bw/day) (TherapeuticCategory: anesthetic): 0.00841

OCc1cc(C(O)CNCCCCCCOCCCCc2ccccc2)ccc1O (stereo not given)
maximum recommended daily dose (mmol/kg-bw/day) [8]: 3.37e-06

N[C@@H](CS)C(=O)O
maximum recommended daily dose (mmol/kg-bw/day) (TherapeuticCategory: none): 0.825

CC1CC(OC(=O)C(O)c2ccccc2)CC(C)(C)C1 (stereo not given)
maximum recommended daily dose (mmol/kg-bw/day) [14]: 0.0966

CN1C(=O)C(O)N=C(c2ccccc2)c2cc(Cl)ccc21 (stereo not given)
maximum recommended daily dose (mmol/kg-bw/day) [5]: 0.000831

COc1ccccc1OCC(O)CO (stereo not given)
maximum recommended daily dose (mmol/kg-bw/day) (TherapeuticCategory: expectorant): 0.101

OC[C@H]1O[C@H](O[C@H]2[C@H](O)[C@@H](O)[C@H](O)O[C@@H]2CO)[C@H](O)[C@@H](O)[C@@H]1O
maximum recommended daily dose (mmol/kg-bw/day) (TherapeuticCategory: none): 0.292

O=C1CN2CCOC2(c2ccccc2Cl)c2cc(Cl)ccc2N1 (stereo not given)
maximum recommended daily dose (mmol/kg-bw/day) [7]: 0.000573

CC[N+](CC)(CCNC(=O)C(=O)NCC[N+](CC)(CC)Cc1ccccc1Cl)Cc1ccccc1Cl
maximum recommended daily dose (mmol/kg-bw/day) (TherapeuticCategory: cholinesterase inhibitor): 0.00274

CS(=O)(=O)c1ccc([C@@H](O)[C@@H](CO)NC(=O)C(Cl)Cl)cc1
maximum recommended daily dose (mmol/kg-bw/day) [1]: 0.14

O=C(OCC(COC(=O)c1cccnc1)(COC(=O)c1cccnc1)COC(=O)c1cccnc1)c1cccnc1
maximum recommended daily dose (mmol/kg-bw/day) [15]: 0.00719

CC(=O)OCC(=O)[C@H]1CC[C@H]2[C@@H]3CCC4=CC(=O)CC[C@]4(C)[C@H]3CC[C@]12C
maximum recommended daily dose (mmol/kg-bw/day) (TherapeuticCategory: mineralcorticoid): 0.00448

OC[C@@H](O)[C@H]1O[C@@H]2O[C@H](C(Cl)(Cl)Cl)O[C@@H]2[C@H]1O
maximum recommended daily dose (mmol/kg-bw/day) [5]: 0.0269

C[N+](C)(C)CC(O)CC(=O)[O-] (stereo not given)
maximum recommended daily dose (mmol/kg-bw/day) [15]: 0.104

CCOC(=O)CCCCCCCCC(C)c1ccc(I)cc1 (stereo not given)
maximum recommended daily dose (mmol/kg-bw/day) [9]: 0.3

CCOc1nc2cccc(C(=O)O)c2n1Cc1ccc(-c2ccccc2-c2nn[nH]n2)cc1
maximum recommended daily dose (mmol/kg-bw/day) [10]: 0.000606

CC(=O)OCC(CCn1cnc2cnc(N)nc21)COC(C)=O
maximum recommended daily dose (mmol/kg-bw/day) (TherapeuticCategory: antiviral): 0.0778

NCCc1ccn[nH]1
maximum recommended daily dose (mmol/kg-bw/day) [9]: 0.0045
